Reference: ChEMBL document CHEMBL1811826, “Structure-activity relationship and docking studies of thiazolidinedione-type compounds with monoamine oxidase B” (Bioorg Med Chem Lett, 2011)
Activity calls are given as the source filed them. No cut-off for these calls is given here.

Experiments:
[1] = target: T1, Amine oxidase [flavin-containing] B (Homo sapiens, UniProt P27338); experiment: Inhibition of human recombinant MAOB by amplex red assay
T1 sequence (P27338 whole entry): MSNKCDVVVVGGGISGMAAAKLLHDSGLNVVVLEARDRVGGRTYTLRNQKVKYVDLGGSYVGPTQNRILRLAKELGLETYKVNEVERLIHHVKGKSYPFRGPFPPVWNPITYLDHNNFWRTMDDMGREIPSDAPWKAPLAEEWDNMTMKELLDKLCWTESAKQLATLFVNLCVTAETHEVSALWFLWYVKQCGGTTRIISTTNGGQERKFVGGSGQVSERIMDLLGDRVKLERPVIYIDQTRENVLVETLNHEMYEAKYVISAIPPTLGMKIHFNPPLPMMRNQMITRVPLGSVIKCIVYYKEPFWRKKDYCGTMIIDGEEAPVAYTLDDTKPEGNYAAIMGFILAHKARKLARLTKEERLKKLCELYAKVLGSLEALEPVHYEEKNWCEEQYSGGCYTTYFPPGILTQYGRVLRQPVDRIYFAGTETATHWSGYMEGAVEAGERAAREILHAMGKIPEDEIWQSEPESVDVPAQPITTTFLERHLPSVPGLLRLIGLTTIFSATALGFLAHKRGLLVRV

[2] = target: T2, Amine oxidase [flavin-containing] A (Homo sapiens, UniProt P21397); experiment: Inhibition of human recombinant MAOA assessed as inhibition of kynuramine conversion to fluorescent metabolite 4-hydroxyquinoline by fluorimetry
T2 sequence (P21397 whole entry): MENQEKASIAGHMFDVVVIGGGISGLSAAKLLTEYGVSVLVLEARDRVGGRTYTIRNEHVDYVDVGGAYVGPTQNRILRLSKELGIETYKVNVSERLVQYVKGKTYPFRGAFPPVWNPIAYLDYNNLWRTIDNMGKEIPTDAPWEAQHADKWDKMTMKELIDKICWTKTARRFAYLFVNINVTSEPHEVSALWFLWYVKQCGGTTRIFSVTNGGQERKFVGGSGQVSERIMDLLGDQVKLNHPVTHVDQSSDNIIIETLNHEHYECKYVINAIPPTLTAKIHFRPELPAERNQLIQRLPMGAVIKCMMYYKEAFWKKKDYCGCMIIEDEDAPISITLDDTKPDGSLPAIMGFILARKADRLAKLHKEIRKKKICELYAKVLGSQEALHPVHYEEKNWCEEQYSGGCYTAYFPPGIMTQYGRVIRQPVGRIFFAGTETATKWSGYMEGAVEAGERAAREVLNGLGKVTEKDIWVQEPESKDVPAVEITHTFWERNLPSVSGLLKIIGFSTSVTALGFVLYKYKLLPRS

[3] = system: Mus musculus; experiment: Toxicity in C57BL/6 mouse assessed as striatal dopamine level at 10 mg/kg, sc measured after 7 days by HPLC method; assay type: organism-based; design: dose 10 mg/kg, route subcutaneous; conditions: in vivo, 168 h
[4] = system: Mus musculus; experiment: Neuroprotective activity in MPTP-stimulated C57BL/6 mouse assessed as increase in striatal dopamine content at 10 mg/kg, sc administered 1 hr before MPTP challenge measured after 7 days by HPLC method; assay type: functional, organism-based; design: dose 10 mg/kg

**Q.** `Cc1cc(CC2SC(=O)NC2=O)cc(C)c1O` (stereo unspecified) was tested. Which IC50 [1] did it give?
**A.** 16.1 µM

**Q.** And the IC50 [2]?
**A.** 26.2 µM

**Q.** What does the source list for `COc1cc(/C=C2/SC(=S)NC2=O)c(OC)cc1O`?
**A.** IC50 [1]: 31.6 µM; IC50 [2]: 380 µM

**Q.** With `O=C1NC(=O)/C(=C\c2cccc(Br)c2)S1` as the compound, how does the IC50 [1] read?
**A.** 6.07 µM

**Q.** And the IC50 [2]?
**A.** 67.3 µM

**Q.** Which IC50 [1] does the source give for `O=C1NC(=O)/C(=N\c2ccc(C(=O)O)cc2)S1` here?
**A.** 56 µM

**Q.** And the IC50 [2]?
**A.** 37.3 µM

**Q.** For `O=C1NC(=O)/C(=C\c2ccncc2)S1`, which IC50 [2] is on record?
**A.** 13 µM

**Q.** How did the IC50 [1] turn out when `O=C(/C=C1/SC(=O)NC1=O)Nc1cccc(O)c1` was run?
**A.** 11 µM

**Q.** And the IC50 [2]?
**A.** 35.3 µM

**Q.** How did the IC50 [1] turn out when `O=C(/C=C1/SC(=O)NC1=O)Nc1ccccc1` was run?
**A.** 22 µM

**Q.** What about the IC50 [2] of the same compound?
**A.** 35.3 µM

**Q.** How did the IC50 [2] turn out when `CCOc1ccc(/C=C2\SC(=O)N(CCN)C2=O)cc1` was run?
**A.** 1.04 µM

**Q.** What does the source list for `CC(C)(C)c1cc(CC2SC(=O)N=C2O)cc(C(C)(C)C)c1O` (stereo unspecified)?
**A.** Activity [3]: Non-toxic; IC50 [1]: 2.38 µM; Activity [4]: Active

**Q.** For `O=C1NC(=O)/C(=C/c2ccc3nccnc3c2)S1`, which IC50 [2] is on record?
**A.** 166 µM

**Q.** What does the source list for `CC(=O)c1ccc(CC2SC(=N)NC2=O)cc1` (stereo unspecified)?
**A.** IC50 [1]: 309 µM; IC50 [2]: 252 µM

**Q.** `O=C(O)C(Cc1ccc(O)cc1)N1C(=O)CSC1=S` (stereo unspecified) was tested. Which IC50 [1] did it give?
**A.** 273 µM

**Q.** What does the source list for `O=C(O)CCN1C(=O)/C(=C\c2ccccc2)SC1=S`?
**A.** IC50 [1]: 604 µM; IC50 [2]: 70.5 µM

**Q.** Which IC50 [1] does the source give for `COc1cc(/C=C2\SC(=S)NC2=O)ccc1O` here?
**A.** 2.49 µM

**Q.** And the IC50 [2]?
**A.** 28.6 µM

**Q.** For `N=C1NC(=O)C(Cc2ccccc2)S1` (stereo unspecified), which IC50 [1] is on record?
**A.** 24.1 µM

**Q.** With `CN(C)c1ccc(/C=C2\SC(=O)N(CCN)C2=O)cc1` as the compound, how does the IC50 [2] read?
**A.** 6.88 µM

**Q.** `COc1ccccc1/C=C1\SC(=O)N(CCN)C1=O` was tested. Which IC50 [2] did it give?
**A.** 29.8 µM

**Q.** Which IC50 [1] does the source give for `CN1C(=O)/C(=C\c2ccc(Cl)cc2)SC1=S` here?
**A.** 36.5 µM

**Q.** What about the IC50 [2] of the same compound?
**A.** 399 µM

**Q.** What does the source list for `CCCN1C(=O)/C(=C\c2ccncc2)SC1=S`?
**A.** IC50 [1]: 0.8 µM; IC50 [2]: 10.6 µM

**Q.** Which results are given for `O=C1NC(=O)/C(=C\c2cc(Br)c(O)c(Br)c2)S1`?
**A.** IC50 [1]: 1.02 µM; IC50 [2]: 39.9 µM

**Q.** `CN1C(=O)/C(=C\c2ccccc2)SC1=S` was tested. Which IC50 [1] did it give?
**A.** 10.5 µM

**Q.** What about the IC50 [2] of the same compound?
**A.** 0.52 µM

**Q.** Which IC50 [2] does the source give for `N#CCCN1C(=O)S/C(=C\c2ccccc2)C1=O` here?
**A.** 3.49 µM

**Q.** `O=C1NC(=S)S/C1=C/c1ccncc1` was tested. Which IC50 [2] did it give?
**A.** 21.8 µM

**Q.** With `O=C1NC(=O)C(Cc2ccc(O)cc2)S1` (stereo unspecified) [GLITAZONE] as the compound, how does the IC50 [1] read?
**A.** 225 µM

**Q.** And the IC50 [2]?
**A.** 194 µM

**Q.** How did the IC50 [2] turn out when `Cc1cc(C)cc(CC2SC(=O)NC2=O)c1` (stereo unspecified) was run?
**A.** 50.5 µM
